Test results reported in BindingDB's records for doi:10.3109/14756360903179443 (Institute of Chemical Technology, 2010).
Where a name gives a salt, the structure may show the parent alone.

Tests used:
Experiment in all cases: Biological Assay
Dihydrofolate reductase [1] = target: T1, Dihydrofolate reductase (Pneumocystis carinii, UniProt P16184)
T1 sequence (P16184 whole entry): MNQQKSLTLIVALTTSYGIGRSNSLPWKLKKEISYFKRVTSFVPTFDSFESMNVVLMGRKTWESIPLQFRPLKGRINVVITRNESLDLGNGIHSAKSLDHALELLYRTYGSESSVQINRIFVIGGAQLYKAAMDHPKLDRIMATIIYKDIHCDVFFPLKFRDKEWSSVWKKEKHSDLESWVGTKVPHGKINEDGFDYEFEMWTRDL
Method: (§1) The synthesized compounds were evaluated for their ability to inhibit DHFR from pc, tg, ma, and rl using a continuous spectrophotometric assay measuring oxidation at […] of NADPH at 37°C under conditions of saturating substrate and cofactor as previously described [Broughton et al., Antimicrob. Agents Chemother., 35:1348-55; Chio et al., Antimicrob. Agents Chemother., 37:1914-23].

Dihydrofolate reductase [2] = target: T2, Dihydrofolate reductase (Rattus norvegicus, UniProt Q920D2)
T2 sequence (Q920D2 whole entry): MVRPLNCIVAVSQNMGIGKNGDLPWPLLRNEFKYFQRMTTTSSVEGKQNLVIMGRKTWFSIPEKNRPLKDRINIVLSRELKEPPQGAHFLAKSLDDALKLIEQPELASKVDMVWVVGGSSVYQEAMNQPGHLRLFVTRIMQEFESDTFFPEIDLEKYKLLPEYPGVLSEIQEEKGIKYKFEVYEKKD
Method: as §1

Dihydrofolate reductase [3] = target: T3, Dihydrofolate reductase (Mycobacterium avium, UniProt O30463)
T3 sequence (O30463 whole entry): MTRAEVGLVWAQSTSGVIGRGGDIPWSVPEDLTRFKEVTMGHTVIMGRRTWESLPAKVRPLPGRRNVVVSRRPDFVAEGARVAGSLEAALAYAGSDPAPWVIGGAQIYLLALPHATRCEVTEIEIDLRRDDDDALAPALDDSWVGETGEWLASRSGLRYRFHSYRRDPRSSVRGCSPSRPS
Method: as §1

[4] = target: T4, Bifunctional dihydrofolate reductase-thymidylate synthase (Toxoplasma gondii, UniProt Q07422)
T4 sequence (Q07422 whole entry): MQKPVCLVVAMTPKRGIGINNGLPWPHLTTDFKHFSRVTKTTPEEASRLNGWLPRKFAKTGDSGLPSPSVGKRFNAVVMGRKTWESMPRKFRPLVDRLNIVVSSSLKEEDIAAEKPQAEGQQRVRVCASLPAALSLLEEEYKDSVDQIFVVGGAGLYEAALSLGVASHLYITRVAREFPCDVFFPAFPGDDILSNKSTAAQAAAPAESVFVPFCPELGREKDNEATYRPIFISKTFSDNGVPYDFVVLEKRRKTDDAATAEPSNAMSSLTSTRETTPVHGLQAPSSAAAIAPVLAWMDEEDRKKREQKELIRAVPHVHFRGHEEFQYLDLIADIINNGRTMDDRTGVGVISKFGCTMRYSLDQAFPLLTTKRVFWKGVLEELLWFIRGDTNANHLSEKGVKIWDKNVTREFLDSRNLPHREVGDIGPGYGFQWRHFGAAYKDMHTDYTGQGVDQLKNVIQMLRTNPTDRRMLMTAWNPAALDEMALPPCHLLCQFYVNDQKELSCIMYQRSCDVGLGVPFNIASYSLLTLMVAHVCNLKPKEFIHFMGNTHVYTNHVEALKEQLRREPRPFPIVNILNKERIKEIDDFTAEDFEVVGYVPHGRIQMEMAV
Method: as §1

In the case of `CC1(C)N=C(N)N=C(N)N1c1ccc(OCc2ccccc2)cc1`, the IC50 (Dihydrofolate reductase [1]) is reported as 5.4 µM, the IC50 (Dihydrofolate reductase [2]) is reported as 0.12 µM and the IC50 (Dihydrofolate reductase [3]) is reported as 14.4 µM. For the same compound, the IC50 [4] was 0.032 µM.

For `CC1(C)N=C(N)N=C(N)N1c1ccc(OCc2ccc(Cl)cc2Cl)cc1` [1-(4-(2,4-Dichlorobenzyloxy)phenyl)-6,6-dimethyl-1-,6-dihydro-1,3,5-triazine-2,4-diamine hydrochloride (B2-04)], the IC50 (Dihydrofolate reductase [1]) was 1.08 µM, the IC50 (Dihydrofolate reductase [2]) was 0.018 µM and the IC50 (Dihydrofolate reductase [3]) was 11.2 µM. It also gave an IC50 [4] of 0.029 µM.

`CC1(C)N=C(N)N=C(N)N1c1ccc(OCc2ccccc2Cl)cc1` [1-(4-(2-Chlorobenzyloxy)phenyl)-6,6-dimethyl-1,6-dihydro-1,3,5-triazine-2,4-diamine hydrochloride (B2-03)] gave an IC50 (Dihydrofolate reductase [1]) of 2.53 µM, an IC50 (Dihydrofolate reductase [2]) of 0.073 µM and an IC50 (Dihydrofolate reductase [3]) of 10.3 µM. For the same compound, the IC50 [4] was 0.04 µM.

Compound `CC1(C)N=C(N)N=C(N)N1c1ccc(OCc2cccc(Cl)c2)cc1` [1-(4-(3-Chlorobenzyloxy)phenyl)-6,6-dimethyl-1,6-dihydro-1,3,5-triazine-2,4-diamine hydrochloride (B2-02)] has an IC50 (Dihydrofolate reductase [1]) of 1.11 µM, an IC50 (Dihydrofolate reductase [2]) of 0.034 µM and an IC50 (Dihydrofolate reductase [3]) of 4.08 µM. The IC50 [4] was 0.02 µM.

`CC1(C)N=C(N)N=C(N)N1c1ccc(OCc2ccc(Br)cc2)cc1` [1-(4-(4-Bromobenzyloxy)phenyl)-6,6-dimethyl-1,6-dihydro-1,3,5-triazine-2,4-diamine hydrochloride (B2-05)] showed an IC50 (Dihydrofolate reductase [1]) of 0.829 µM, an IC50 (Dihydrofolate reductase [2]) of 0.033 µM and an IC50 (Dihydrofolate reductase [3]) of 7.32 µM. It also gave an IC50 [4] of 0.033 µM.

For `COc1ccc(COc2ccc(N3C(N)=NC(N)=NC3(C)C)cc2)cc1` [1-(4-(4-Methoxybenzyloxy)phenyl)-6,6-dimethyl-1,6-dihydro-1,3,5-triazine-2,4-diamine hydrochloride (B2-06)], the IC50 (Dihydrofolate reductase [1]) was 1.69 µM, the IC50 (Dihydrofolate reductase [2]) was 0.048 µM and the IC50 (Dihydrofolate reductase [3]) was 3.38 µM. The IC50 [4] was 0.019 µM.

Work on `CC1(C)N=C(N)N=C(N)N1c1ccc(OCc2ccc(-c3ccccc3)cc2)cc1` [1-(4-(Biphenyl-4-ylmethoxy)phenyl)-6,6-dimethyl-1,6-dihydro-1,3,5-triazine-2,4-diamine hydrochloride (B2-07)] yielded an IC50 (Dihydrofolate reductase [1]) of 0.403 µM, an IC50 (Dihydrofolate reductase [2]) of 0.026 µM and an IC50 (Dihydrofolate reductase [3]) of 10.2 µM. It also gave an IC50 [4] of 0.012 µM.

`CC1(C)N=C(N)N=C(N)N1c1ccc(OCCN2C(=O)c3ccccc3C2=O)cc1` [2-(2-(4-(4,6-Diamino-2,2-dimethyl-1,3,5-triazin-1(2H)-yl)phenoxy)ethyl)isoindoline-1,3-dione hydrochloride (A2-01)] was tested, and the IC50 (Dihydrofolate reductase [1]) was 15.4 µM, the IC50 (Dihydrofolate reductase [2]) was 1.16 µM and the IC50 (Dihydrofolate reductase [3]) was 44.6 µM. For the same compound, the IC50 [4] was 0.424 µM.

`CC1(C)N=C(N)N=C(N)N1c1ccc(OCC(O)CN2C(=O)c3ccccc3C2=O)cc1` (stereo not given) [2-(3-(4-(4,6-Diamino-2,2-dimethyl-1,3,5-triazin-1(2H)-yl)phenoxy)-2-hydroxypropyl)isoindoline-1,3-dione hydrochloride (A2-04)] showed an IC50 (Dihydrofolate reductase [1]) of 34.6 µM, an IC50 (Dihydrofolate reductase [2]) of 1.94 µM and an IC50 (Dihydrofolate reductase [3]) of 154 µM. It also gave an IC50 [4] of 0.523 µM.

In the case of `CC1(C)N=C(N)N=C(N)N1c1ccc(OCCCN2C(=O)c3ccccc3C2=O)cc1` [2-(3-(4-(4,6-Diamino-2,2-dimethyl-1,3,5-triazin-1(2H)-yl)phenoxy)propyl)isoindoline-1,3-dione hydrochloride (A2-02)], the IC50 (Dihydrofolate reductase [1]) is reported as 6.49 µM, the IC50 (Dihydrofolate reductase [2]) is reported as 0.556 µM and the IC50 (Dihydrofolate reductase [3]) is reported as 35.2 µM. It also gave an IC50 [4] of 0.169 µM.

`CC1(C)N=C(N)N=C(N)N1c1ccc(OCCCCN2C(=O)c3ccccc3C2=O)cc1` [2-(4-(4-(4,6-Diamino-2,2-dimethyl-1,3,5-triazin-1(2H)-yl)phenoxy)butyl)isoindoline-1,3-dione (A2-03)] gave an IC50 (Dihydrofolate reductase [1]) of 2.61 µM, an IC50 (Dihydrofolate reductase [2]) of 0.033 µM and an IC50 (Dihydrofolate reductase [3]) of 8.9 µM. The IC50 [4] was 0.079 µM.

With `N=C(N)NC(=N)Nc1ccc(OCc2ccccc2)cc1` [N-[4-(Benzyloxy)phenyl]imidodicarbonimidic diamide hydrochloride (B1-01)] the IC50 (Dihydrofolate reductase [1]) was 132 µM, the IC50 (Dihydrofolate reductase [2]) was 132 µM and the IC50 (Dihydrofolate reductase [3]) was 132 µM. For the same compound, the IC50 [4] was 132 µM.

For `NC(N)=N/C(N)=N/c1ccc(OCc2ccc(-c3ccccc3)cc2)cc1` [N-[4-(Biphenyl-4-ylmethoxy)phenyl]imidodicarbonimidic diamide hydrochloride (B1-07)], the IC50 (Dihydrofolate reductase [1]) was 104 µM, the IC50 (Dihydrofolate reductase [2]) was 67 µM and the IC50 (Dihydrofolate reductase [3]) was 104 µM. The IC50 [4] was 111 µM.

With `N=C(N)NC(=N)Nc1ccc(OCCN2C(=O)c3ccccc3C2=O)cc1` [N-{4-[2-(1,3-Dioxo-1,3-dihydro-2H-isoindol-2-yl)ethoxy]phenyl}imidodicarbonimidic diamide hydrochloride (A1-01)] the IC50 (Dihydrofolate reductase [1]) was 51.4 µM, the IC50 (Dihydrofolate reductase [2]) was 67.7 µM and the IC50 (Dihydrofolate reductase [3]) was 51.4 µM. For the same compound, the IC50 [4] was 40.3 µM.

Work on `N=C(N)NC(=N)Nc1ccc(OCCCN2C(=O)c3ccccc3C2=O)cc1` [N-{4-[3-(1,3-Dioxo-1,3-dihydro-2H-isoindol-2-yl)propoxy]phenyl}imidodicarbonimidic diamide hydrochloride (A1-02)] yielded an IC50 (Dihydrofolate reductase [1]) of 106 µM, an IC50 (Dihydrofolate reductase [2]) of 106 µM and an IC50 (Dihydrofolate reductase [3]) of 106 µM. For the same compound, the IC50 [4] was 135 µM.

With `NC(N)=N/C(N)=N/c1ccc(OCc2ccc(Cl)cc2Cl)cc1` [N-{4-[(2,4-Dichlorobenzyl)oxy]phenyl}imidodicarbonimidic diamide hydrochloride (B1-04)] the IC50 (Dihydrofolate reductase [1]) was 123 µM, the IC50 (Dihydrofolate reductase [2]) was 27.9 µM and the IC50 (Dihydrofolate reductase [3]) was 111 µM. It also gave an IC50 [4] of 111 µM.

For `N=C(N)NC(=N)Nc1ccc(OCc2ccccc2Cl)cc1` [N-{4-[(2-Chlorobenzyl)oxy]phenyl}imidodicarbonimidic diamide hydrochloride (B1-03)], the IC50 (Dihydrofolate reductase [1]) was 293 µM, the IC50 (Dihydrofolate reductase [2]) was 20.8 µM and the IC50 (Dihydrofolate reductase [3]) was 152 µM. It also gave an IC50 [4] of 9.95 µM.

For `NC(N)=N/C(N)=N/c1ccc(OCc2cccc(Cl)c2)cc1` [N-{4-[(3-Chlorobenzyl)oxy]phenyl}imidodicarbonimidic diamide hydrochloride (B1-02)], the IC50 (Dihydrofolate reductase [1]) was 104 µM, the IC50 (Dihydrofolate reductase [2]) was 68.7 µM and the IC50 (Dihydrofolate reductase [3]) was 63.8 µM. The IC50 [4] was 58.5 µM.

`COc1cccc(COc2ccc(NC(=N)NC(=N)N)cc2)c1` [N-{4-[(3-Methoxybenzyl)oxy]phenyl}imidodicarbonimidic diamide hydrochloride (B1-06)] gave an IC50 (Dihydrofolate reductase [1]) of 15.5 µM, an IC50 (Dihydrofolate reductase [2]) of 14.7 µM and an IC50 (Dihydrofolate reductase [3]) of 15.5 µM. It also gave an IC50 [4] of 8.4 µM.

`N=C(N)NC(=N)Nc1ccc(OCc2ccc(Br)cc2)cc1` [N-{4-[(4-Bromobenzyl)oxy]phenyl}imidodicarbonimidic diamide hydrochloride (B1-05)] gave an IC50 (Dihydrofolate reductase [1]) of 164 µM, an IC50 (Dihydrofolate reductase [2]) of 74.9 µM and an IC50 (Dihydrofolate reductase [3]) of 127 µM. It also gave an IC50 [4] of 21.4 µM.
